pIC50: −log10 of the molar value.
Legend:
Type in all cases: biochemical
human cyclin D1-CDK4 = human cyclin D1-CDK4 (Homo sapiens, UniProt P11802); test: FlashPlate kinase assay, cyclin D1-CDK4; conditions: Rb protein substrate, 1 μM ATP, 33P-ATP, 30 minutes room temperature; read-out: CDK4 IC50
Method: To determine inhibition of Cdk4, Cdk2 and Cdk1 activity, kinase assays were conducted using FlashPlate™ assays (NEN™-Life Science Products). FlashPlate assays were performed using recombinant human cyclin B-CDK1, human cyclin E-CDK2 or human cyclin D1-CDK4 complexes. GST-cyclinE (GST-cycE), CDK2, GST-cyclinB (GST-cycB), CDK1, GST-CDK4 and cyclin D1 (cycD1) cDNA clones in baculovirus vectors were provided by Dr. W. Harper at the Baylor College of Medicine, Houston, Tex.
(§1) The expression of the 62Kd protein was under the control of an IPTG inducible promoter in an M15 E. coli strain. Cells were lysed by sonication and purification was carried out by binding lysates at pH 8.0 to a Ni-chelated agarose column pretreated with 1 mM imidazole. The resin was then washed several times with incrementally decreasing pH buffers to pH 6.0, and eluted with 500 mM imidazole. Eluted protein was dialysed against 20 mM HEPES pH 7.5, 30% glycerol, 200 mM NaCl, and 1 mM DTT. Purified Rb fusion protein stocks were quantitated for protein concentration, aliquoted, and stored at −70° C.
(§2) For all three kinase assays reported herein, 96-well FlashPlates were coated with Rb protein at 10 μg/ml, using 100 μl per well. Plates were incubated at 4° C. overnight or at room temperature for 3 hours on a shaker. To control for nonspecific phosphorylation, one row of wells was coated with 100 μl/well coating buffer (20 mM HEPES, 0.2 M NaCl). Plates were then washed twice with wash buffer (0.01% Tween 20 in phosphate-buffered saline). Compounds to be tested (“test compounds”) were added to the wells at 5× final concentration. Reactions were initiated by immediate addition of 40 μl reaction mix (25 mM HEPES, 20 mM MgCl2, 0.002% Tween 20, 2 mM DTT, 1 μM ATP, 4 nM ^33P-ATP) and a sufficient amount of enzyme to give counts that were at least 10-fold above background. Plates were incubated at room temperature on a shaker for 30 minutes. Plates were washed four times with the wash buffer, sealed, and counted on the TopCount scintillation counter (Packard Instrument Co., Downers Grove, Ill.]. The percent inhibition of Rb phosphorylation, which is a measure of the inhibition of CDK activity, was determined according to the following formula:
[formula] where “test compound” refers to the average counts per minute of the test duplicates, “nonspecific” refers to the average counts per minute when no CyclinD/Cdk4, etc., was added, and “total” refers to the average counts per minute when no compound was added.

human cyclin E-CDK2 = human cyclin E-CDK2 (Homo sapiens, UniProt P24941); test: FlashPlate kinase assay, cyclin E-CDK2; conditions: Rb protein substrate, 1 μM ATP, 33P-ATP, 30 minutes room temperature
Method: (§3) To determine inhibition of Cdk4, Cdk2 and Cdk1 activity, kinase assays were conducted using FlashPlate™ assays (NEN™-Life Science Products). FlashPlate assays were performed using recombinant human cyclin B-CDK1, human cyclin E-CDK2 or human cyclin D1-CDK4 complexes. GST-cyclinE (GST-cycE), CDK2, GST-cyclinB (GST-cycB), CDK1, GST-CDK4 and cyclin D1 (cycD1) cDNA clones in baculovirus vectors were provided by Dr. W. Harper at the Baylor College of Medicine, Houston, Tex. Proteins were co-expressed in High Five™ insect cells and the complex was purified on glutathione Sepharose resin (Pharmacia, Piscataway, N.J.) as previously described (Harper, J. W. et al. Cell 1993, 75, 805–816). A 6×-Histidine tagged truncated form of retinoblastoma (Rb) protein (amino acid 386–928) was used as the substrate for the cycD1-CDK4, cycB-CDK1 and the cycE-CDK2 assays (the expression plasmid was provided by Dr. Veronica Sullivan, Department of Molecular Virology, Roche Research Centre, Welwyn Garden City, United Kingdom). The Rb protein is a natural substrate for phosphorylation by CDK4, CDK2 and CDK1 (see Herwig and Strauss Eur. J. Biochem. Vol. 246 (1997) pp. 581–601 and the references cited therein).
as §1, §2
(§4) [formula] where “test compound” refers to the average counts per minute of the test duplicates, “nonspecific” refers to the average counts per minute when no CyclinD/Cdk4, etc., was added, and “total” refers to the average counts per minute when no compound was added. The IC50 value is the concentration of test compound that reduces by 50% the protein-kinase induced incorporation of the radiolabel under the test conditions described.

human cyclin B-CDK1 = human cyclin B-CDK1 (Homo sapiens, UniProt P06493); test: FlashPlate kinase assay, cyclin B-CDK1; conditions: Rb protein substrate, 1 μM ATP, 33P-ATP, 30 minutes room temperature
human cyclin B-CDK1, sequence (P06493 whole entry): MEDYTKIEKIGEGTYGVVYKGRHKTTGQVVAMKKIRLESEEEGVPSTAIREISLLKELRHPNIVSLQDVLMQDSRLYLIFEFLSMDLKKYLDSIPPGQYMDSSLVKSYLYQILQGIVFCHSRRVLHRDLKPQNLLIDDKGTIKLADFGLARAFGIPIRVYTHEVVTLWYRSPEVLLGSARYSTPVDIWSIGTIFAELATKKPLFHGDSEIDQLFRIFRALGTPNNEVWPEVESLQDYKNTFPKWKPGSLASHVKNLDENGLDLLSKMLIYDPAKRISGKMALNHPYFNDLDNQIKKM
human cyclin B-CDK1, sequence (P14635 whole entry partner): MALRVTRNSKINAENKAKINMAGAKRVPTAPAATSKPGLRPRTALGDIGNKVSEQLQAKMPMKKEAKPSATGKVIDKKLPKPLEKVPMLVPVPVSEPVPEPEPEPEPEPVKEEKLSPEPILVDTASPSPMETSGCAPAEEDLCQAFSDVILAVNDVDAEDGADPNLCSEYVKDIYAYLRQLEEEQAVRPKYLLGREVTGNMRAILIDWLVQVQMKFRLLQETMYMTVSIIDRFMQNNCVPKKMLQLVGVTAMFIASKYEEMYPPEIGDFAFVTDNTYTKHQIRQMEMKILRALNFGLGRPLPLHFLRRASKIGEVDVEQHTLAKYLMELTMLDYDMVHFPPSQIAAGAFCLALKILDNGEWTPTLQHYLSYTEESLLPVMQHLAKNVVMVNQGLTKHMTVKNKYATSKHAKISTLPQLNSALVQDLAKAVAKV
Method: as §3, §1, §2, §4

human cyclin D1-CDK4, sequence (P11802 whole entry): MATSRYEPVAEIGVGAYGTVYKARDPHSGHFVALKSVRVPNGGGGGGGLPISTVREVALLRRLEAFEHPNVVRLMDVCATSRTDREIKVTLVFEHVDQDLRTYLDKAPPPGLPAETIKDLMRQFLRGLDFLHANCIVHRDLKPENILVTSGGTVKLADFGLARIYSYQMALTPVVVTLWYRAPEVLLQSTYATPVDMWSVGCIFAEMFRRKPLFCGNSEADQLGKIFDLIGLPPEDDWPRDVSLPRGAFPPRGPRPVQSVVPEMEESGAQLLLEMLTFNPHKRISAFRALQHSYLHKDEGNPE
human cyclin D1-CDK4, sequence (P24385 whole entry partner): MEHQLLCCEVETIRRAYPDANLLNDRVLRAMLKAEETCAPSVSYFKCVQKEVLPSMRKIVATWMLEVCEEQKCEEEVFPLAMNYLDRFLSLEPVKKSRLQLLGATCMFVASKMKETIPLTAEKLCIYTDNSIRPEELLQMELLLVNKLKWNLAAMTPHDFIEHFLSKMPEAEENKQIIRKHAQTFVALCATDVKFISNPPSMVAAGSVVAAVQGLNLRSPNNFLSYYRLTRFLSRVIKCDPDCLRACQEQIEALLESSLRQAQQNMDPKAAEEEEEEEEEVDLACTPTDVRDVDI

SMILES | pIC50 (human cyclin D1-CDK4) | pIC50 (human cyclin E-CDK2) | pIC50 (human cyclin B-CDK1)
Nc1nc(Nc2ccc(N3CCC(N4CCCCC4)CC3)cc2)sc1C(=O)c1ccc(F)c(F)c1 [Example 59, [4-Amino-2-(4-[1,4′]bipiperidinyl-1′-yl-phenylamino)-thiazol-5-yl]-(3,4-difluoro-phenyl)-methanone] | 7.21 | 5.51 | 5.33
Nc1nc(Nc2ccc(N3CCC(N4CCCC4)CC3)cc2)sc1C(=O)c1ccc(Cl)c(Cl)c1 [Example 69] | 6.99 | 5.25 | 5.21
Nc1nc(Nc2ccc(N3CCC(N4CCOCC4)CC3)cc2)sc1C(=O)c1cccc(F)c1 [Example 99, {4-Amino-2-[4-(4-morpholin-4-yl-piperidin-1-yl)-phenylamino]-thiazol-5-yl}-(3-fluoro-phenyl)-methanone] | 7.46 | 6.26 | 6.35
CN(C)C1CCN(c2ccc(Nc3nc(N)c(C(=O)c4ccc(O)cc4)s3)cc2)CC1 [Example 46, {4-Amino-2-[4-(4-dimethylamino-piperidin-1-yl)-phenylamino]-thiazol-5-yl}-(4-hydroxy-phenyl)-methanone] | 7.26 | 5.25 | 5.42
Nc1nc(Nc2ccc(N3CCC(N4CCCC(O)C4)CC3)cc2)sc1C(=O)c1cc(F)cc(F)c1 (stereo not shown) [Example 73, {4-Amino-2-[4-(3-hydroxy-[1,4′]bipiperidinyl-1′-yl)-phenylamino]-thiazol-5-yl}-(3,5-difluoro-phenyl)-methanone] | 7.06 | 5.09 | 5.59
Nc1nc(Nc2ccc(N3CCC(N4CCCC(O)C4)CC3)cc2)sc1C(=O)c1ccc(F)c(F)c1 (stereo not shown) [Example 75, {4-Amino-2-[4-(3-hydroxy-[1,4′]bipiperidinyl-1′-yl)-phenylamino]-thiazol-5-yl}-(3,4-difluoro-phenyl)-methanone] | 7.24 | 5.06 | 5.39
CN(C)C1CCN(c2ccc(Nc3nc(N)c(C(=O)c4ccc(F)c(F)c4)s3)cc2)CC1 [Example 84, {4-Amino-2-[4-(4-dimethylamino-piperidin-1-yl)-phenylamino]-thiazol-5-yl}-(3,4-difluoro-phenyl)-methanone] | 6.91 | 5.02 | 5.43
Nc1nc(Nc2ccc(N3CCC(N4CCCCC4)CC3)cc2)sc1C(=O)c1ccc(Cl)c([N+](=O)[O-])c1 [Example 62, [4-Amino-2-(4-[1,4′]bipiperidinyl-1′-yl-phenylamino)-thiazol-5-yl]-(4-chloro-3-nitro-phenyl)-methanone] | 6.56 | 5.38 | 5.38
Nc1nc(Nc2ccc(N3CCC(N4CCCCC4)CC3)cc2)sc1C(=O)c1cccc([N+](=O)[O-])c1 [Example 89, [4-Amino-2-(4-[1,4′]bipiperidinyl-1′-yl-phenylamino)-thiazol-5-yl]-(3-nitro-phenyl)-methanone] | 7.00 | 5.65 | 6.29
Nc1nc(Nc2ccc(N3CCC(N4CCOCC4)CC3)cc2)sc1C(=O)c1cccc(O)c1 [Example 103, {4-Amino-2-[4-(4-morpholin-4-yl-piperidin-1-yl)-phenylamino]-thiazol-5-yl}-(3-hydroxy-phenyl)-methanone] | 7.44 | 5.48 | 5.82
N#Cc1cccc(C(=O)c2sc(Nc3ccc(N4CCC(N5CCCCC5)CC4)cc3)nc2N)c1 [Example 64, 3-[4-Amino-2-(4-[1,4′]bipiperidinyl-1′-yl-phenlamino)-thiazole-5-carbonyl]-benzonitrile] | 7.82 | 5.57 | 5.89
COc1ccc(C(=O)c2sc(Nc3ccc(N4CCC(N(C)C)CC4)cc3)nc2N)cc1F [Example 42, {4-Amino-2-[4-(4-dimethylamino-piperidin-1-yl)-phenylamino]-thiazol-5-yl}-(3-fluoro-4-methoxy-phenyl)-methanone] | 7.07 | 5.23 | 5.24
CN(C)C1CCN(c2ccc(Nc3nc(N)c(C(=O)c4cccc(C#N)c4)s3)cc2)CC1 [Example 88, 3-{4-Amino-2-[4-(4-dimethylamino-piperidin-1-yl)-phenylamino]-thiazole-5-carbonyl}-benzonitrile] | 7.82 | 5.41 | 6.03
CN(C)C1CCN(c2ccc(Nc3nc(N)c(C(=O)c4ccc(Cl)c([N+](=O)[O-])c4)s3)cc2)CC1 [Example 87, {4-Amino-2-[4-(4-dimethylamino-piperidin-1-yl)-phenylamino]-thiazol-5-yl}-(4-chloro-3-nitro-phenyl)-methanone] | 6.88 | 5.35 | 5.52
COc1cccc(C(=O)c2sc(Nc3ccc(N4CCC(N(C)C)CC4)cc3)nc2N)c1[N+](=O)[O-] [Example 49, {4-Amino-2-[4-(4-dimethylamino-piperidin-1-yl)-phenylamino]-thiazol-5-yl}-(3-methoxy-2-nitro-phenyl)-methanone] | 8.10 | 6.87 | 8.30
COc1cccc(C(=O)c2sc(Nc3ccc(N4CCC(N5CCOCC5)CC4)cc3)nc2N)c1 [Example 102, {4-Amino-2-[4-(4-morpholin-4-yl-piperidin-1-yl)-phenylamino]-thiazol-5-yl}-(3-methoxy-phenyl)-methanone] | 7.54 | 5.32 | 5.70
N#Cc1cccc(C(=O)c2sc(Nc3ccc(N4CCC(N5CCOCC5)CC4)cc3)nc2N)c1 [Example 104, 3-{4-Amino-2-[4-(4-morpholin-4-yl-piperidin-1-yl)-phenylamino]-thiazole-5-carbonyl}-benzonitrile] | 7.51 | 5.70 | 5.89
COc1ccc(C(=O)c2sc(Nc3ccc(N4CCC(N5CCOCC5)CC4)cc3)nc2N)cc1[N+](=O)[O-] [Example 106, {4-Amino-2-[4-(4-morpholin-4-yl-piperidin-1-yl)-phenylamino]-thiazol-5-yl}-(4-methoxy-3-nitro-phenyl)-methanone] | 7.28 | 5.32 | 5.64
Nc1nc(Nc2ccc(N3CCC(N4CCCC4)CC3)cc2)sc1C(=O)c1ccc(O)cc1 [Example 28, {4-Amino-2-[4-(4-pyrrolidin-1-yl-piperidin-1-yl)-phenylamino]-thiazol-5-yl}-(4-hydroxy-phenyl)-methanone] | 7.28 | 5.38 | 5.93
Nc1nc(Nc2ccc(N3CCC(N4CCCC(O)C4)CC3)cc2)sc1C(=O)c1ccc(Cl)c(Cl)c1 (stereo not shown) [Example 76, {4-Amino-2-[4-(3-hydroxy-[1,4′]bipiperidinyl-1′-yl)-phenylamino]-thiazol-5-yl}-(3,4-dichloro-phenyl)-methanone] | 6.91 | 5.06 | –
Nc1nc(Nc2ccc(N3CCC(N4CCOCC4)CC3)cc2)sc1C(=O)c1ccc2c(c1)OCCO2 [Example 98, {4-Amino-2-[4-(4-morpholin-4-yl-piperidin-1-yl)-phenylamino]-thiazol-5-yl}-(2,3-dihydro-benzo[1,4]dioxin-6-yl)-methanone] | 7.41 | – | 5.57

Source: US7211576B2, “Diaminothiazoles” (Hoffmann-La Roche Inc., priority 2004, dated 2007)
